Results on 2 molecules are retold here after PMC9948211 (ACS Omega, 2023).

The target of this assay is T1, PPAR-γ (Homo sapiens, UniProt P37231).
T1 sequence (P37231 1-505): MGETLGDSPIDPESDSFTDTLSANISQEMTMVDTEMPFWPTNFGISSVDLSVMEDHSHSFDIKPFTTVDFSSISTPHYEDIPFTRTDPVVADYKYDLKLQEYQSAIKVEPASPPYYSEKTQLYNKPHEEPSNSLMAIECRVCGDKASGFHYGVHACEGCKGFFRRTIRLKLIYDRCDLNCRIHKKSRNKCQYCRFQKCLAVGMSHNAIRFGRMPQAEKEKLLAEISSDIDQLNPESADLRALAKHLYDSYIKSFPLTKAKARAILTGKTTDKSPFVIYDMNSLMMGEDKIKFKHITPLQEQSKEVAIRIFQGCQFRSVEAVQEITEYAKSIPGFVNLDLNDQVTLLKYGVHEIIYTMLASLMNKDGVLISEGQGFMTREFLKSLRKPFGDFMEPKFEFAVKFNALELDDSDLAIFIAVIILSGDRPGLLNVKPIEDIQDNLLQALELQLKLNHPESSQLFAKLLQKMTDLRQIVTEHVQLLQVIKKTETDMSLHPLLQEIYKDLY
Put plainly: LanthaScreen TR-FRET competitive binding assay.

Molecule `COc1cc(CC/C(C)=N\O)ccc1OCC(=O)Nc1nccs1` [G2, (Z)-2-(4-(3-(Hydroxyimino)butyl)-2-methoxyphenoxy)-N-(thiazol-2-yl)acetamide] showed an IC50 of 4.51 µM.

Turning to `COc1cc(CC/C(C)=N\O)ccc1OCC(=O)Nc1ccc(F)cc1` [G1, (Z)-N-(4-Fluorophenyl)-2-(4-(3-(hydroxyimino)butyl)-2-methoxyphenoxy)acetamide], the IC50 stood at 2.25 µM.
